Data from patent US9796711B2, “Substituted pyrazolo[3,4-b]pyridin-6-carboxylic acids and method of use” (AbbVie S.àr.l., priority 2015, dated 2017).

How the values were obtained:
ΔF508-CFTR [1] = biological target: T1, ΔF508-CFTR (Homo sapiens, UniProt P13569, DEL508-508); experiment: CFTR cell surface levels using HRP-tagged ΔF508-CFTR expressing CFBE cells, intrinsic corrector capacity; format: cell-based
T1 construct: host or cells: CFBE41o-, doxycycline-inducible
Source text: Measuring CFTR Cell Surface Levels Using HRP-Tagged AF508-CFTR Expressing CFBE Cells
The HRP-tagged AF508-CFTR cell assay measures the expression of CFTR-ΔF508 at the plasma membrane. CFTR-ΔF508 has a folding defect leading to absence of protein at the plasma membrane. This assay is used to evaluate the capacity of compounds to increase the expression of CFTR-ΔF508 at the plasma membrane. The CFTR-ΔF508 is tagged with HRP (horse radish peroxidase enzyme) within the ECL4 (Extracellular loop 4) of CFTR (Phuan, P.-W. et al. Synergy-based small-molecule screen using a human lung epithelial cell line yields AF508-CFTR correctors that augment VX-809 maximal efficacy. Mol. Pharmacol. 86, 42-51 (2014)). When HRP-tagged AF508-CFTR is present at the plasma membrane, the HRP enzyme activity can be measured. The amount of CFTR-ΔF508 that can be rescued to the plasma membrane is correlated with the amount of functional enzyme that can be measured.
There are several ways to measure the capacity of compounds to rescue CFTR-ΔF508 to the plasma membrane; either compounds are evaluated on their own and the impact on plasma membrane levels is measured or compounds are evaluated in combination with a co-corrector, i.e. a compound that rescues CFTR-ΔF508 to the plasma membrane but rescue can be enhanced by addition of compounds due to a complementary mode of action.
Activity of Compounds for their Intrinsic Corrector Capacity:
For this purpose doxycycline-inducible AF508-CFTR-HRP expressing CFBE4lo-cells (obtained from Gergely Lukacs, McGill University) were maintained in MEM (Gibco; 31095) supplemented with 10% fetal bovine serum (Hyclone; SV30160.03) under puromycin (3 μg/mL) and G418 selection (0.2 mg/mL). For compound testing, cells were seeded at 4000 cells/well in white 384-well plates (Greiner; 781080) in 50 μL medium containing 0.5 μg/mL doxycycline and incubated for 68 hours at 37° C., 5% CO2. On day four, 10 μL test compounds diluted in PBS were added to the plates at a final DMSO concentration of 0.1%. All compound plates contained negative controls (DMSO) and positive controls (3 μM corrector, 3-[(2R,4R)-4-({[1-(2,2-difluoro-1,3-benzodioxol-5-yl)cyclopropyl]carbonyl}amino)-7-methoxy-3,4-dihydro-2H-chromen-2-yl]benzoic acid). Cell plates were incubated at 33° C., 5% CO2 for 20 hours. On day five, the cells were washed five times with phosphate-buffered saline, and HRP activity was assayed by the addition of 50 μL/well of HRP substrate (SuperSignal™ West Pico Chemiluminescent Substrate, Thermo Scientific; 34080). After incubation for 15 minutes in the dark, chemiluminescence was measured using a plate reader (EnVision®, Perkin Elmer). Raw data were normalized to percentage activity values using the equation: 100×(Sample−Negative control)/(Positive control−Negative Control).

ΔF508-CFTR [2] = biological target: T1, ΔF508-CFTR; experiment: CFTR cell surface levels using HRP-tagged ΔF508-CFTR expressing CFBE cells, in the presence of a co-corrector; format: cell-based
How it was run: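 Cells were seeded with 0.5 μg/mL doxycycline and held 68 h at 37 °C. Test compounds plus 3 μM co-corrector (final 0.1% DMSO) were then added for 20 h at 33 °C. Washed cells received HRP substrate, and luminescence was normalized between DMSO and 3 μM co-corrector controls.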

[3] = HRP-tagged ΔF508-CFTR expressing CFBE cells, intrinsic corrector capacity (no co-corrector), 33° C., 20 hours
[4] = HRP-tagged ΔF508-CFTR expressing CFBE cells, in the presence of 3 μM co-corrector
[5] = HRP-tagged ΔF508-CFTR expressing CFBE cells, intrinsic corrector capacity (no co-corrector), 33° C., 20 hours, read-out: EC50
[6] = HRP-tagged ΔF508-CFTR expressing CFBE cells, in the presence of 3 μM co-corrector, read-out: EC50
[7] = HRP-tagged ΔF508-CFTR CFBE41o- cells, compounds alone (intrinsic corrector capacity), 20 hours at 33° C., positive control 3 μM corrector
[8] = HRP-tagged ΔF508-CFTR CFBE41o- cells, compounds alone (intrinsic corrector capacity), 20 hours at 33° C., read-out: EC50

T1 sequence (P13569 with tags, fused parts or gaps DEL508-508): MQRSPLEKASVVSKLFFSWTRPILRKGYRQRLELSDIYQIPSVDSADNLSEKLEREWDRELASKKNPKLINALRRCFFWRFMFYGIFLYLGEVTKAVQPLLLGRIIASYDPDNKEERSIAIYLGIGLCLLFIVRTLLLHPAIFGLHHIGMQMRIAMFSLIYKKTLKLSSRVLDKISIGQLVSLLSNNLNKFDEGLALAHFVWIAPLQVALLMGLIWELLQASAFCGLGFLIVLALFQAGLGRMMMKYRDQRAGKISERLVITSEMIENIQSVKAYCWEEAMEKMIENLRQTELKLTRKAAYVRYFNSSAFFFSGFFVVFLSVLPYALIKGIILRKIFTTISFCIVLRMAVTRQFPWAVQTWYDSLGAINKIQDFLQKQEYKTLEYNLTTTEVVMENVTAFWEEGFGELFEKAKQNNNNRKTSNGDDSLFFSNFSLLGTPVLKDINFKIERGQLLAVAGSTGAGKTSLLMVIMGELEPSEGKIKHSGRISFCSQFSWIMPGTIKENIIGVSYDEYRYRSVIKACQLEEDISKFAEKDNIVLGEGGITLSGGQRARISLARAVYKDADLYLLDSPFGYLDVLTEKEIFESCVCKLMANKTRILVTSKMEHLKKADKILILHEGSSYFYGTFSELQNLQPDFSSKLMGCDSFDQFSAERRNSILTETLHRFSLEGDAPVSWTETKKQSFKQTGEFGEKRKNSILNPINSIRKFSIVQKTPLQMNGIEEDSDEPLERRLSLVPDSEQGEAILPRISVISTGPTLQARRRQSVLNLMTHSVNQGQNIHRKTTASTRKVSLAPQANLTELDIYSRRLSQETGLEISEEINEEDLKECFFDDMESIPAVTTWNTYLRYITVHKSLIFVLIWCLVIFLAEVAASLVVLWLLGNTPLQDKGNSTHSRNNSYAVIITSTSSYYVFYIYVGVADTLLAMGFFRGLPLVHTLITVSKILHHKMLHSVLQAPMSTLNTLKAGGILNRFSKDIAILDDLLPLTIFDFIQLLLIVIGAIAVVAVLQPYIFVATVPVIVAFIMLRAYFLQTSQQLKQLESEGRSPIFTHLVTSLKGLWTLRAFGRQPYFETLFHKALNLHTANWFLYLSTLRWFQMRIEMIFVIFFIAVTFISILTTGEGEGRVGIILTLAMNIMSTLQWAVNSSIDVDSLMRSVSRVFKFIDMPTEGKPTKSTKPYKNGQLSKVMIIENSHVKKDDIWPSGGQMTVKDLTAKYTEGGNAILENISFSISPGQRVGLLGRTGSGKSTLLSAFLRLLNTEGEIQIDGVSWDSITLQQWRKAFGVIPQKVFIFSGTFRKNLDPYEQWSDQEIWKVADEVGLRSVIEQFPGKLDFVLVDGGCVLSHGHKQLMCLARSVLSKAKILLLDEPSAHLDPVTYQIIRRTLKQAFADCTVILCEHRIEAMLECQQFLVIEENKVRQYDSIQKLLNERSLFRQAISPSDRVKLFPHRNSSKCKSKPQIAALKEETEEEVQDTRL

SMILES	EC50 (ΔF508-CFTR [1]) [nM]	% Activation (ΔF508-CFTR [1]; [3]) [%]	EC50 (ΔF508-CFTR [2]) [nM]	% Activation (ΔF508-CFTR [2]; [4]) [%]	EC50 (ΔF508-CFTR [1]; [5]) [nM]	EC50 (ΔF508-CFTR [2]; [6]) [nM]	% Activation (ΔF508-CFTR [1]; [7]) [%]	EC50 (ΔF508-CFTR [1]; [8]) [nM]
CC(C)(C)OC(=O)N1CC[C@@H]2CN(c3cc(C(=O)O)nc4c3c(C3CCC3)nn4-c3ccccc3)CC[C@@H]21 (racemic) [compound 549, rac-4-[(3aR,7aS)-1-(tert-butoxycarbonyl)octahydro-5H-pyrrolo[3,2-c]pyridin-5-yl]-3-cyclobutyl-1-phenyl-1H-pyrazolo[3,4-b]pyridine-6-carboxylic acid]	211	302.2	61.7	467.2	–	–	–	–
CC(=O)N1CC[C@@H]2CN(c3cc(C(=O)O)nc4c3c(C3CCC3)nn4-c3ccccc3)CC[C@@H]21 (single isomer, unassigned) [compound 587]	–	149.5	–	360.33	3330	2420	–	–
CC(=O)N1CC[C@H]2CN(c3cc(C(=O)O)nc4c3c(C3CCC3)nn4-c3ccccc3)CC[C@H]21 (single isomer, unassigned) [compound 588]	–	232.6	–	469.3	3330	2420	–	–
COc1ccc(-c2cc(C(=O)O)nc3c2c(C)nn3C2CCCCC2)cc1 [compound 2, 1-cyclohexyl-4-(4-methoxyphenyl)-3-methyl-1H-pyrazolo[3,4-b]pyridine-6-carboxylic acid]	–	–	–	198.6	–	2970	49.03	2650
Cc1cccc(-n2nc(C)c3c(-c4ccc(N5CCOCC5)cc4)cc(C(=O)O)nc32)c1 [compound 13, 3-methyl-1-(3-methylphenyl)-4-[4-(morpholin-4-yl)phenyl]-1H-pyrazolo[3,4-b]pyridine-6-carboxylic acid]	–	–	–	363.7	–	723	159.23	997
Cc1nn(-c2ccccc2)c2nc(C(=O)O)cc(-c3cnc(N4CCOCC4)nc3)c12 [compound 15, 3-methyl-4-[2-(morpholin-4-yl)pyrimidin-5-yl]-1-phenyl-1H-pyrazolo[3,4-b]pyridine-6-carboxylic acid]	–	–	–	282.5	–	2600	98.68	2670
Cc1cccc(-n2nc(C(C)C)c3c(-c4ccc(N5CCOCC5)cc4)cc(C(=O)O)nc32)c1 [compound 20, 1-(3-methylphenyl)-4-[4-(morpholin-4-yl)phenyl]-3-(propan-2-yl)-1H-pyrazolo[3,4-b]pyridine-6-carboxylic acid]	–	–	–	450.9	–	371	199.98	522
Cc1nn(-c2cccc(C(F)(F)F)c2)c2nc(C(=O)O)cc(-c3ccc(N4CCOCC4)cc3)c12 [compound 22, 3-methyl-4-[4-(morpholin-4-yl)phenyl]-1-[3-(trifluoromethyl)phenyl]-1H-pyrazolo[3,4-b]pyridine-6-carboxylic acid]	–	–	–	310.95	–	995	131.28	1010
Cc1nn(-c2ccccc2)c2nc(C(=O)O)cc(-c3ccc(N4CCOCC4)cc3Cl)c12 [compound 26, 4-[2-chloro-4-(morpholin-4-yl)phenyl]-3-methyl-1-phenyl-1H-pyrazolo[3,4-b]pyridine-6-carboxylic acid]	–	–	–	258.4	–	1090	83.24	1270
Cc1nn(-c2cccc(N3CCOCC3)c2)c2nc(C(=O)O)cc(-c3ccc(N4CCOCC4)cc3)c12 [compound 32, 3-methyl-1-[3-(morpholin-4-yl)phenyl]-4-[4-(morpholin-4-yl)phenyl]-1H-pyrazolo[3,4-b]pyridine-6-carboxylic acid]	–	–	–	399.6	–	1390	176.7	638
Cc1nn(-c2cccc(N(C)C)c2)c2nc(C(=O)O)cc(-c3ccc(N4CCOCC4)cc3)c12 [compound 36, 1-[3-(dimethylamino)phenyl]-3-methyl-4-[4-(morpholin-4-yl)phenyl]-1H-pyrazolo[3,4-b]pyridine-6-carboxylic acid]	–	–	–	364.5	–	3340	118.9	2000
CC(C)c1nn(-c2ccnc(Cl)c2)c2nc(C(=O)O)cc(-c3ccc(N4CCOCC4)cc3)c12 [compound 41, 1-(2-chloropyridin-4-yl)-4-[4-(morpholin-4-yl)phenyl]-3-(propan-2-yl)-1H-pyrazolo[3,4-b]pyridine-6-carboxylic acid]	–	–	–	301.2	–	527	110.52	957
CC(C)c1nn(-c2ccc(OC(F)(F)F)cc2)c2nc(C(=O)O)cc(-c3ccc(N4CCOCC4)cc3)c12 [compound 43, 4-[4-(morpholin-4-yl)phenyl]-3-(propan-2-yl)-1-[4-(trifluoromethoxy)phenyl]-1H-pyrazolo[3,4-b]pyridine-6-carboxylic acid]	–	–	–	360.8	–	371	187.4	408
CC(C)(C)OC(=O)N1CC(c2nn(-c3ccccc3)c3nc(C(=O)O)cc(-c4ccc(N5CCOCC5)cc4)c23)C1 [compound 47, 3-[1-(tert-butoxycarbonyl)azetidin-3-yl]-4-[4-(morpholin-4-yl)phenyl]-1-phenyl-1H-pyrazolo[3,4-b]pyridine-6-carboxylic acid]	–	–	–	390.5	–	567	183.2	608
CC(C)c1nn(C2CCCCC2)c2nc(C(=O)O)cc(-c3ccc(N4CCOCC4)cc3)c12 [compound 54, 1-cyclohexyl-4-[4-(morpholin-4-yl)phenyl]-3-(propan-2-yl)-1H-pyrazolo[3,4-b]pyridine-6-carboxylic acid]	–	–	–	392.6	–	376	167.9	763
Cc1nn(-c2ccccc2)c2nc(C(=O)O)cc(-c3ccc(N4CCN(C(C)(C)C)CC4)cc3)c12 [compound 60, 4-[4-(4-tert-butylpiperazin-1-yl)phenyl]-3-methyl-1-phenyl-1H-pyrazolo[3,4-b]pyridine-6-carboxylic acid]	–	–	–	143.1	–	> 10000	14.9	> 10000
COc1ccc(-n2nc(C)c3c(-c4ccc(N5CCOCC5)cc4)cc(C(=O)O)nc32)cn1 [compound 61, 1-(6-methoxypyridin-3-yl)-3-methyl-4-[4-(morpholin-4-yl)phenyl]-1H-pyrazolo[3,4-b]pyridine-6-carboxylic acid]	–	–	–	253.6	–	2350	96.05	3340
CC(C)c1nn(C2CCCCC2)c2nc(C(=O)O)cc(-c3cnc(N(C)C)nc3)c12 [compound 62, 1-cyclohexyl-4-[2-(dimethylamino)pyrimidin-5-yl]-3-(propan-2-yl)-1H-pyrazolo[3,4-b]pyridine-6-carboxylic acid]	–	–	–	349.9	–	1690	159.65	2630
CC(C)(O)c1nn(-c2ccccc2)c2nc(C(=O)O)cc(-c3ccc(N4CCOCC4)cc3)c12 [compound 63, 3-(2-hydroxypropan-2-yl)-4-[4-(morpholin-4-yl)phenyl]-1-phenyl-1H-pyrazolo[3,4-b]pyridine-6-carboxylic acid]	–	–	–	294.35	–	3340	108.18	3340
